Experimental data: patent US5789434A, “Derivatives of substituted 4-biarylbutyric acid as matrix metalloprotease inhibitors” (priority 1995, dated 1998)

Columns and labels:
Type in all cases: biochemical
[1] = molecular target: T1, MMP-3 (Homo sapiens, UniProt P08254); assay: Automated MMP Profiling Assay, MMP-3 fluorogenic; details: for IC50: 96-well automated, P218
T1 construct: Truncated Prostromelysin-257 was expressed in a soluble form in E.coli; made in house; host or cells: E. coli
Text: This assay with each invention compound was run with the three enzymes MMP-3, MMP-9 and MMP-2 in parallel as adapted for a 96-well microtitre plate using a Hamilton A® workstation.

[2] = molecular target: T2, MMP-9 (Homo sapiens, UniProt P14780); assay: Automated MMP Profiling Assay, MMP-9 fluorogenic; details: for IC50: 96-well automated, P218
T2 construct: from tissue; host or cells: human polymorphonuclear leukocytes (PMN) from whole blood (New York Blood Center), PMA-stimulated supernatant
T2 sequence (P14780 107-707 limits assumed): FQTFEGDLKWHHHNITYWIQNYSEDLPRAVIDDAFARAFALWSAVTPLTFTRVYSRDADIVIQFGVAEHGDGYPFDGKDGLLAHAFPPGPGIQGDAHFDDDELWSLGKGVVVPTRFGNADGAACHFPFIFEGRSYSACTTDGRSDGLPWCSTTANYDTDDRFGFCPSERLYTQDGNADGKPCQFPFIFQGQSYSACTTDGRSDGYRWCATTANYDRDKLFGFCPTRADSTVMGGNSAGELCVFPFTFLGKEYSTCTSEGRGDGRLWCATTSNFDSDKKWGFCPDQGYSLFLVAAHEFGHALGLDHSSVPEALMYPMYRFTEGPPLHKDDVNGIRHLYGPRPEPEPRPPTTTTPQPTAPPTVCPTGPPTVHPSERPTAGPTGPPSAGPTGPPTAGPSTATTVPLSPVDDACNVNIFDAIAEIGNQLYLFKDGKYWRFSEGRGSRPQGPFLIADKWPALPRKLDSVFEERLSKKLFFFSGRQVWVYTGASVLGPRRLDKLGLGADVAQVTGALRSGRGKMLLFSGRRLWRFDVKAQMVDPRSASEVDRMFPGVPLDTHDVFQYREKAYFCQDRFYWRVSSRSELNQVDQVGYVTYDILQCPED

[3] = molecular target: T3, MMP-2 (Homo sapiens, UniProt P08253); assay: Automated MMP Profiling Assay, MMP-2 fluorogenic; details: for IC50: 96-well automated, P218, read-out: MMP-2 Fluorogenic IC50 (profiling)
T3 sequence (P08253 110-660): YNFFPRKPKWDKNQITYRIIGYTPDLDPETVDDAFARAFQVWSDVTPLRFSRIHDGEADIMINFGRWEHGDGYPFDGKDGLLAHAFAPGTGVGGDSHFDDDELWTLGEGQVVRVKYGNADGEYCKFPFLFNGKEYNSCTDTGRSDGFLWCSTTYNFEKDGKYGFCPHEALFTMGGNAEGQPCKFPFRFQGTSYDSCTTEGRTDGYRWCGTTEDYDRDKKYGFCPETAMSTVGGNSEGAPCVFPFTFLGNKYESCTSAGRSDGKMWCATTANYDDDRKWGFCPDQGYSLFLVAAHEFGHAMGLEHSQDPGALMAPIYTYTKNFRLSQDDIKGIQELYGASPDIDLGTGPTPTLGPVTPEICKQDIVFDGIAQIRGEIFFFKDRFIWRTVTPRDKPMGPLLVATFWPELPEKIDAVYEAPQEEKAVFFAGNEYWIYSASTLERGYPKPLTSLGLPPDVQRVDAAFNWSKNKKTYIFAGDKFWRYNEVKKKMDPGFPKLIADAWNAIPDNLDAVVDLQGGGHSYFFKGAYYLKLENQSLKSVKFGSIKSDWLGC

T1 sequence (P08254 100-274 limits assumed): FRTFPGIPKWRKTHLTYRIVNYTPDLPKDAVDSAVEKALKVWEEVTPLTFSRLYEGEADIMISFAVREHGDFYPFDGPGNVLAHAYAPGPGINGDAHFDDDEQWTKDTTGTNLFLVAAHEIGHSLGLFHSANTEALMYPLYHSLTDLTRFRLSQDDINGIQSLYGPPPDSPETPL

Row | SMILES | IC50 [1] | IC50 [2] | IC50 [3] | inhibition at 5 µM [1] | inhibition at 5 µM [2] | inhibition at 5 µM ([3]; at 5 μM)
1 | CCOc1ccc(-c2ccc(C(=O)CC(CCN3C(=O)c4ccccc4C3=O)C(=O)O)cc2)cc1 (stereo not drawn) [Example 273, 2H-Isoindole-2-butanoic acid, α-[2-(4'-ethoxy[1,1'-biphenyl]-4-yl)-2-oxoethyl]-1,3-dihydro-1,3-dioxo-] | 21 nM | 1.25 nM | 2.27 nM | – | – | –
2 | O=C(CC(CN1C(=O)c2ccccc2C1=O)C(=O)O)c1ccc(-c2ccc(Cl)cc2)cc1 (stereo not drawn) [Example 276, 2H-Isoindole-2-propanoic acid, α-[2-(4'-chloro[1,1'-biphenyl]-4-yl)-2-oxoethyl]-1,3-dihydro-1,3-dioxo-] | 262 nM | 275 nM | 39 nM | – | – | –
3 | O=C(CC(CCNC(=O)c1ccccc1C(=O)O)C(=O)O)c1ccc(-c2ccc(Cl)cc2)cc1 (stereo not drawn) [Example 279, [1,1'-Biphenyl]-4-butanoic acid, α-[2-[(2-carboxybenzoyl)amino]ethyl]-4'-chloro-γ-oxo-] | 402 nM | 286 nM | 67 nM | – | – | –
4 | COC(=O)c1ccccc1S[C@@H]1CC[C@@H](C(=O)c2ccc(-c3ccc(Cl)cc3)cc2)[C@@H]1C(=O)O [Example 300, (1R,2R,5R)-trans-5-[4-(4-chlorophenyl)phenylcarbonyl]-cis-2-(2-methoxycarbonylphenylthio)cyclopentanecarboxylic acid] | > 1250 nM | > 1250 nM | 2500 nM | – | – | –
5 | O=C(c1ccc(-c2ccc(Cl)cc2)cc1)C1CCC(Sc2ccccc2)C1C(=O)O (stereo not drawn) [Example 312, Cyclopentanecarboxylic acid, 2-[(4'-chloro[1,1'-biphenyl]-4-yl)carbonyl]-5-(phenylthio)-, (1α,2β,5α)-] | 80 nM | 871 nM | 60 nM | – | – | –
6 | O=C(C[C@H](CS(=O)(=O)c1ccccc1)C(=O)O)c1ccc(-c2ccc(Cl)cc2)cc1 [Example 314, [1,1'-Biphenyl]-4-butanoic acid, 4'-chloro-γ-oxo-α-[(phenylsulfonyl)methyl]-, (S)-] | 399 nM | 555 nM | 13 nM | – | – | –
7 | CCCCCOc1ccc(-c2ccc(C(=O)[C@H]3CC[C@@H](Cc4ccccc4)[C@@H]3C(=O)O)cc2)cc1 [Example 324, Cyclopentanecarboxylic acid, 2-[[4'-(pentyloxy)[1,1'-biphenyl]-4-yl]carbonyl]-5-(phenylmethyl)-, [1S-(1α,2β,5β)]-] | 46 nM | 343 nM | 8.1 nM | – | – | –
8 | CCCCCOc1ccc(-c2ccc(C(=O)[C@@H]3CC[C@H](Cc4ccccc4)[C@H]3C(=O)O)cc2)cc1 [Example 325, Cyclopentanecarboxylic acid, 2-[[4'-(pentyloxy)[1,1'-biphenyl]-4-yl]carbonyl]-5-(phenylmethyl)-, [1R-(1α,2β,5β)]-] | – | – | 4400 nM | 10% | 0% | –
9 | C#Cc1ccc(-c2ccc(C(=O)CC(CCCc3ccccc3)C(=O)O)cc2)cc1 (stereo not drawn) [Example 351, [1,1'-Biphenyl]-4-butanoic acid, 4'-ethynyl-γ-oxo-α-(3-phenylpropyl)-] | 107 nM | 151 nM | 50 nM | – | – | –
10 | CCCCC#Cc1ccc(-c2ccc(C(=O)CC(CCCc3ccccc3)C(=O)O)cc2)cc1 (stereo not drawn) [Example 352, [1,1'-Biphenyl]-4-butanoic acid, 4'-(1-hexynyl)-γ-oxo-α-(3-phenylpropyl)-] | 130 nM | 905 nM | 61 nM | – | – | –
11 | COC/C=C/c1ccc(-c2ccc(C(=O)CC(CCCc3ccccc3)C(=O)O)cc2)cc1 (stereo not drawn) [Example 353, [1,1'-Biphenyl]-4-butanoic acid, 4'-(3-methoxy-1-propenyl)-γ-oxo-α-(3-phenylpropyl)-, (E)-] | 84 nM | 274 nM | 20 nM | – | – | –
12 | COC/C=C\c1ccc(-c2ccc(C(=O)CC(CCCc3ccccc3)C(=O)O)cc2)cc1 (stereo not drawn) [Example 354, [1,1'-Biphenyl]-4-butanoic acid, 4'-(3-methoxy-1-propenyl)-γ-oxo-α-(3-phenylpropyl)-, (Z)-] | 577 nM | 1710 nM | 76 nM | – | – | –
13 | COCCCc1ccc(-c2ccc(C(=O)CC(CCCc3ccccc3)C(=O)O)cc2)cc1 (stereo not drawn) [Example 355, [1,1'-Biphenyl]-4-butanoic acid, 4'-(3-methoxypropyl)-γ-oxo-α-(3-phenylpropyl)-] | 508 nM | 1080 nM | 90 nM | – | – | –
14 | CCCC/C=C\c1ccc(-c2ccc(C(=O)CC(CCCc3ccccc3)C(=O)O)cc2)cc1 (stereo not drawn) [Example 356, [1,1'-Biphenyl]-4-butanoic acid, 4'-(1-hexenyl)-γ-oxo-α-(3-phenylpropyl)-, (Z)-] | – | – | 188 nM | 45% | 14% | –
15 | CCCCCCc1ccc(-c2ccc(CCC(CCCc3ccccc3)C(=O)O)cc2)cc1 (stereo not drawn) [Example 357, [1,1'-Biphenyl]-4-butanoic acid, 4'-hexyl-α-(3-phenylpropyl)-] | – | – | – | 15% | 4% | 38%
16 | O=C(CC(CCCc1ccccc1)C(=O)O)c1ccc(-c2ccc(/C=C\c3ccccc3)cc2)cc1 (stereo not drawn) [Example 358, [1,1'-Biphenyl]-4-butanoic acid, 4'-γ-oxo-4'-(2-phenylethenyl)-α-(3-phenylpropyl)-, (Z)-] | – | – | 124 nM | 39% | 4% | –
17 | O=C(CC(CCCc1ccccc1)C(=O)O)c1ccc(-c2ccc(CCc3ccccc3)cc2)cc1 (stereo not drawn) [Example 359, [1,1'-Biphenyl]-4-butanoic acid, 4'-γ-oxo-4'-(2-phenylethyl)-α-(3-phenylpropyl)-] | 83 nM | – | 51 nM | – | 16% | –
18 | O=C(CC(CCN1C(=O)c2ccc(OCc3ccccc3)cc2C1=O)C(=O)O)c1ccc(-c2ccc(Cl)cc2)cc1 (stereo not drawn) [Example 405, 2H-Isoindole-2-butanoic acid, α-[2-(4'-chloro[1,1'-biphenyl]-4-yl)-2-oxoethyl]-1,3-dihydro-1,3-dioxo-5-(phenylmethoxy)-] | 75 nM | 5.8 nM | 80 nM | – | – | –
19 | CCCOc1ccc2c(c1)C(=O)N(CCC(CC(=O)c1ccc(-c3ccc(Cl)cc3)cc1)C(=O)O)C2=O (stereo not drawn) [Example 406, 2H-Isoindole-2-butanoic acid, α-[2-(4'-chloro[1,1'-biphenyl]-4-yl)-2-oxoethyl]-1,3-dihydro-1,3-dioxo-5-propoxy-] | 10.3 nM | 1.7 nM | 17 nM | – | – | –
20 | O=C(CC(CCN1C(=O)c2cccc(OCc3ccccc3)c2C1=O)C(=O)O)c1ccc(-c2ccc(Cl)cc2)cc1 (stereo not drawn) [Example 407, 2H-Isoindole-2-butanoic acid, α-[2-(4'-chloro[1,1'-biphenyl]-4-yl)-2-oxoethyl]-1,3-dihydro-1,3-dioxo-4-(phenylmethoxy)-] | 69 nM | 36 nM | 39 nM | – | – | –
21 | O=C(CC(CCN1C(=O)c2cc3ccccc3cc2C1=O)C(=O)O)c1ccc(-c2ccc(Cl)cc2)cc1 (stereo not drawn) [Example 409, 2H-Benz[.function.]isoindole-2-butanoic acid, α-[2-(4'-chloro[1,1'-biphenyl]-4-yl)-2-oxoethyl]-1,3-dihydro-1,3-dioxo-] | 12.3 nM | 1.9 nM | 30 nM | – | – | –
22 | O=C(CC(CCN1C(=O)c2cccc3cccc(c23)C1=O)C(=O)O)c1ccc(-c2ccc(Cl)cc2)cc1 (stereo not drawn) [Example 410, 1H-Benz[de]isoquinoline-2(3H)-butanoic acid, α-[2-(4'-chloro[1,1'-biphenyl]-4-yl)-2-oxoethyl]-1,3-dioxo-] | 104 nM | 44 nM | 80 nM | – | – | –
23 | O=C(CC(CCN1C(=O)CCC1=O)C(=O)O)c1ccc(-c2ccc(Cl)cc2)cc1 (stereo not drawn) [Example 411, 1-Pyrrolidinebutanoic acid, α-[2-(4'-chloro[1,1'-biphenyl]-4-yl)-2-oxoethyl]-2,5-dioxo-] | 116 nM | 213 nM | 27 nM | – | – | –
24 | CCOc1ccc(-c2ccc(C(=O)CC(CCN3C(=O)CCC3=O)C(=O)O)cc2)cc1 (stereo not drawn) [Example 412, 1-Pyrrolidinebutanoic acid, α-[2-(4'-ethoxy[1,1'-biphenyl]-4-yl)-2-oxoethyl]-2,5-dioxo-] | 84 nM | 41 nM | 10 nM | – | – | –
25 | CC(C)(C)c1ccc2c(c1)C(=O)N(CCC(CC(=O)c1ccc(-c3ccc(Cl)cc3)cc1)C(=O)O)C2=O (stereo not drawn) [Example 414, 2H-Isoindole-2-butanoic acid, α-[2-(4'-chloro[1,1'-biphenyl]-4-yl)-2-oxoethyl]-5-(1,1-dimethylethyl)-1,3-dihydro-1,3-dioxo-] | 37 nM | 15 nM | 79 nM | – | – | –
26 | O=C(CC(CCN1C(=O)c2cc(Cl)c(Cl)cc2C1=O)C(=O)O)c1ccc(-c2ccc(Cl)cc2)cc1 (stereo not drawn) [Example 415, 2H-Isoindole-2-butanoic acid, 5,6-dichloro-α-[2-(4'-chloro[1,1'-biphenyl]-4-yl)-2-oxoethyl]-1,3-dihydro-1,3-dioxo-] | 12 nM | 1.2 nM | 34 nM | – | – | –
